The subject of one assay is mouse macrophages. As to the kind of experiment: stimulated release of TNF-α from mouse macrophages. It counts as cell-based. As to conditions: Macrophage. An outline of the steps:
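EC50 derived from dose-response curves for stimulated TNF-α release from mouse macrophages.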

The subject of assay [1] is differentiated human THP-1 cells. As to the kind of experiment: stimulated release of TNF-α from differentiated human THP-1 cells (ELISA, dose-response). It counts as cell-based. To be noted: Homo sapiens. An outline of the steps:
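Human THP-1 cells were PMA-differentiated toward macrophages, and stimulated TNF-α release was measured by ELISA. EC50 values were taken from dose-response curves.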
For orientation: ELISA stands for enzyme-linked immunosorbent assay.

Setting [2] is: table of 140-146 (four lipid side chains), mouse macrophages, read-out: EC50 (nM) (mouse).
[3] abbreviates: THP-1, table of 140-146 (four lipid side chains), human THP-1 cells, read-out: EC50 (nM) (THP-1).
Setting [4] is: table of 125-132 (one lipid side chain, R and S), mouse macrophages, read-out: EC50 (nM) (mouse).
Setting [5] is: THP-1, table of 125-132 (one lipid side chain, R and S), human THP-1 cells, read-out: EC50 (nM) (THP-1).

The structures appear in SMILES notation. Where two headings read alike, the source gives them in different places.

As for `CC(C)(C)OC(=O)COc1cc(C(=O)N2C[C@@H](C(=O)N[C@H]3C[C@@H]3c3ccccc3)[C@H](C(=O)N[C@H]3C[C@@H]3c3ccccc3)C2)ccc1C(=O)N1C[C@@H](C(=O)N[C@H]2CC2c2ccccc2)[C@H](C(=O)N[C@H]2C[C@@H]2c2ccccc2)C1` (stereo partly drawn) [Compound 147, tert-Butyl 2-(2,5-Bis((3S,4S)-3,4-bis(((1S,2R)-2-phenylcyclopropyl)carbamoyl)-pyrrolidine-1-carbonyl)phenoxy)acetate], the concentration giving a half-maximal response (EC50) in the assay on mouse macrophages (table of functionalized derivatives 147-151, mouse macrophages, read-out: EC50 (nM) (mouse)) was determined as 260 nM; in assay [1] (THP-1, table of functionalized derivatives 147-151, human THP-1 cells, read-out: EC50 (nM) (THP-1)), 40 nM.

Consider `CCCCCCCCCCCCNC(=O)[C@@H]1CN(C(=O)c2ccc(C(=O)N3C[C@@H](C(=O)NCCCCCCCCCCCC)[C@H](C(=O)NCCCCCCCCCCCC)C3)cc2)C[C@H]1C(=O)NCCCCCCCCCCCC` [Compound 142, (3S,3′S,4S,4′S)-1,1′-Terephthaloylbis(N^3,N^4-didodecylpyrrolidine-3,4-dicarboxamide)], for which the EC50 (in the assay on mouse macrophages (setting [2]); in assay [1] (setting [3])) was greater than 5000 nM throughout.

As for `CCCCCCCCCCCCCCNC(=O)[C@@H]1CCN(C(=O)c2ccc(C(=O)N3C[C@@H](C(=O)N[C@H]4C[C@@H]4c4ccccc4)[C@H](C(=O)N[C@H]4C[C@@H]4c4ccccc4)C3)cc2)C1` [Compound 126, (3S,4S)—N^3,N^4-Bis((1S,2R)-2-phenylcyclopropyl)-1-(4-((R)-3-(tetradecylcarbamoyl)pyrrolidine-1-carbonyl)benzoyl)pyrrolidine-3,4-dicarboxamide], the EC50 in the assay with mouse macrophages (setting [4]) came to 260 nM; in assay [1] (setting [5]), 2 nM.

For the molecule `CCCCCCCCCCCCCCCCNC(=O)[C@@H]1CN(C(=O)c2ccc(C(=O)N3C[C@@H](C(=O)N[C@H]4C[C@@H]4c4ccccc4)[C@H](C(=O)N[C@H]4C[C@@H]4c4ccccc4)C3)cc2)C[C@H]1C(=O)NCCCCCCCCCCCCCCCC` [Compound 133, (3S,4S)-1-(4-((3S,4S)-3,4-Bis(((1S,2R)-2-phenyl-cyclopropyl)carbamoyl)pyrrolidine-1-carbonyl)-benzoyl)-N^3,N^4-dihexadecylpyrrolidine-3,4-dicarboxamide], the 50% effective concentration (EC50) with mouse macrophages (table of 133-139 (two lipid side chains), mouse macrophages, read-out: EC50 (nM) (mouse)) came to 1000 nM; in assay [1] (THP-1, table of 133-139 (two lipid side chains), human THP-1 cells, read-out: EC50 (nM) (THP-1)) it was 2.5 nM.

For `CCCCCCCCCCCCNC(=O)[C@@H]1CCN(C(=O)c2ccc(C(=O)N3C[C@@H](C(=O)N[C@H]4C[C@@H]4c4ccccc4)[C@H](C(=O)N[C@H]4C[C@@H]4c4ccccc4)C3)cc2)C1` [Compound 127, (3S,4S)-1-(4-((R)-3-(Dodecylcarbamoyl)-pyrrolidine-1-carbonyl)benzoyl)—N^3,N^4-bis((1S,2R)-2-phenylcyclopropyl)pyrrolidine-3,4-dicarboxamide], the EC50 was 700 nM with mouse macrophages (setting [4]) and 9 nM in assay [1] (setting [5]).

For `CCCCNC(=O)[C@@H]1CN(C(=O)c2ccc(C(=O)N3C[C@@H](C(=O)NCCCC)[C@H](C(=O)NCCCC)C3)cc2)C[C@H]1C(=O)NCCCC` [Compound 146, (3S,3′S,4S,4′S)-1,1′-Terephthaloylbis(N^3,N^4-dibutylpyrrolidine-3,4-dicarboxamide)], the 50% effective concentration (EC50) (with mouse macrophages (setting [2]); in assay [1] (setting [3])) was greater than 5000 nM each time.

In the case of `O=C(N[C@H]1C[C@@H]1c1ccccc1)[C@H]1CN(C(=O)c2ccc(C(=O)N3C[C@H](C(=O)N[C@H]4C[C@@H]4c4ccccc4)[C@@H](C(=O)N[C@H]4C[C@@H]4c4ccccc4)C3)cc2)C[C@@H]1C(=O)N[C@H]1C[C@@H]1c1ccccc1` [Compound 19, (3R,3′R,4R,4′R)-1,1′-Terephthaloylbis(N^3,N^4-bis((1S,2R)-2-phenylcyclopropyl)pyrrolidine-3,4-dicarboxamide)], the EC50 in the assay on mouse macrophages (Mus musculus, Scheme 1, footnote b, read-out: EC50 TNF-α release from mouse macrophages) was greater than 5000 nM; in assay [1] (THP-1, Scheme 1, footnote a, read-out: EC50 TNF-α release from human THP-1 cells) it was greater than 5000 nM.

With `O=C(NCCc1ccc(F)cc1)[C@@H]1CN(C(=O)[C@H]2CC[C@@H](C(=O)N3C[C@@H](C(=O)NCCc4ccc(F)cc4)[C@H](C(=O)NCCc4ccc(F)cc4)C3)CC2)C[C@H]1C(=O)NCCc1ccc(F)cc1` [Compound 108, (3S,3′S,4S,4′S)-1,1′-((1R,4R)-Cyclohexane-1,4-dicarbonyl)bis(N^3,N^4-bis(4-fluorophenethyl)-pyrrolidine-3,4-dicarboxamide)], the EC50 with mouse macrophages (Table 7, TNF-α release from mouse macrophages, read-out: EC50 (nM) (mouse)) is greater than 5000 nM; in assay [1] (THP-1, Table 7, TNF-α release from human THP-1 cells, read-out: EC50 (nM) (THP-1)) it was greater than 5000 nM.

In general, EC50 refers to the concentration that produces a half-maximal response.

For the origin of these results see patent US11040959B2, “Diprovocims: a new and potent class of TLR agonists” (The Scripps Research Institute, priority 2016, dated 2021).
